Assay results published in US20120258980A1, “Antibacterial Agent for Drug-Resistant Bacteria, Method for Screening for Same, and Use of Same” (priority 2009, published 2012).

Tested on: VISA clinical isolates of MRSA (VI-MRSA) and of MSSA (VI-MSSA)
Assay: microbe, parasite or virus in culture
Type: cell-based, Staphylococcus aureus
Description: Each of the bacterial strains listed in Table 1-1 was shake-cultured at 37° C. overnight in 4 mL of a medium (Tryptical Soy Broth: TSB, product of Becton Dickinson and Company). FDA209P was used as a control.
After completion of culturing, the resultant culture was suspended in a cation-adjusted Mueller Hinton Broth (CAMHB, product of Becton Dickinson and Company). Then, the obtained bacterial culture was adjusted in absorbance with the CAMHB so that the absorbance at 578 nm of the bacterial culture was adjusted to 0.3 measured by an absorption spectrometer. In addition, the resultant bacterial culture was 500-fold diluted with the CAMHB.
Each of the 500-fold diluted, pre-cultured bacterial cultures was added at 50 μL/well to the CAMHB containing the quinolones and the nybomycins at various concentrations (50 μL/well), followed by statically culturing at 37° C. overnight.
After completion of culturing, the growth of the bacteria was visually determined based on turbidity to measure MIC in each bacterial strain.
Here, the glycopeptides used were VCM and TEIC. The β-lactam used was OXA.

Measured: MIC

C[C@H]1COc2c(N3CCN(C)CC3)c(F)cc3c(=O)c(C(=O)O)cn1c23 [LVFX, levofloxacin]
64 µg/mL: Staphylococcus aureus, MRSA / MSSA / NRS 79 / VISA, NRS79, VI-MRSA, America
32 µg/mL: Staphylococcus aureus, HIP07930, VI-MRSA, America | Staphylococcus aureus, HIP09143, VI-MRSA, America | Staphylococcus aureus, HIP09433, VI-MRSA, America | Staphylococcus aureus, HIP09662, VI-MRSA, America | Staphylococcus aureus, HIP09737, VI-MSSA, America | Staphylococcus aureus, HIP09740, VI-MRSA, America | Staphylococcus aureus, HIP10267, VI-MRSA, America | Staphylococcus aureus, HIP12864, VI-MRSA, America | Staphylococcus aureus, IL (HIP7737), VI-MRSA, America | Staphylococcus aureus, JCSC7195, VI-MRSA, Thailand | Staphylococcus aureus, LIM2, VI-MRSA, France | Staphylococcus aureus, MI (HIP5827), VI-MRSA, America | Staphylococcus aureus, MRSA / MSSA / NRS 118 / VISA, NRS118, VI-MRSA, America
16 µg/mL: Staphylococcus aureus, 99/3700-W, VI-MRSA, The United Kingdom | Staphylococcus aureus, 99/3759-V, VI-MRSA, The United Kingdom | Staphylococcus aureus, 98141, VI-MRSA, France | Staphylococcus aureus, AMC11094, VI-MRSA, Korea | Staphylococcus aureus, BR1, VI-MRSA, Brazil | Staphylococcus aureus, BR3, VI-MRSA, Brazil | Staphylococcus aureus, BR5, VI-MRSA, Brazil | Staphylococcus aureus, HIP06854, VI-MRSA, America | Staphylococcus aureus, HIP08926, VI-MRSA, America | Staphylococcus aureus, HIP13057, VI-MRSA, America | Staphylococcus aureus, JCSC7193, VI-MRSA, Thailand | Staphylococcus aureus, JCSC7203, VI-MRSA, Thailand | Staphylococcus aureus, MRSA / MSSA / NRS 76 / VISA, NRS76, VI-MSSA, America | Staphylococcus aureus, Mu3, VI-MRSA, Japan | Staphylococcus aureus, NJ (HIP5836), VI-MRSA, America
8 µg/mL: Staphylococcus aureus, 28160, VI-MRSA, South African Republic | Staphylococcus aureus, A7 (JCSC4842), VI-MRSA, Taiwan | Staphylococcus aureus, B7 (JCSC4852), VI-MRSA, Taiwan | Staphylococcus aureus, BR2, VI-MRSA, Brazil | Staphylococcus aureus, BR4, VI-MRSA, Brazil | Staphylococcus aureus, HIP07920, VI-MRSA, America | Staphylococcus aureus, HIP09313, VI-MRSA, America | Staphylococcus aureus, HIP09735, VI-MRSA, America | Staphylococcus aureus, HIP10540, VI-MRSA, America | Staphylococcus aureus, Mu50, VI-MRSA, Japan | Staphylococcus aureus, PC, VI-MRSA, America
0.125 µg/mL: Staphylococcus aureus, SA MER-S20, VI-MSSA, France
4 µg/mL: Staphylococcus aureus, HIP06297, VI-MRSA, America | Staphylococcus aureus, HIP13036, VI-MRSA, America | Staphylococcus aureus, LY-1999-01, VI-MSSA, Oman | Staphylococcus aureus, LY-1999-03, VI-MRSA, Oman | Staphylococcus aureus, MRSA / MSSA / NRS 126 / VISA, NRS126, VI-MRSA, America | Staphylococcus aureus, P1V44, VI-MSSA, Belgium
0.5 µg/mL: Staphylococcus aureus, SA MER-S6, VI-MSSA, France | Staphylococcus aureus, SA MER-S12, VI-MSSA, France
